Results from US10272158B2, “Compounds for treating biofilm infection” (Board of Regents, The University of Texas System, priority 2014, dated 2019).
In brackets after ≈: the same amount, converted by molar mass. Several values for one entry are separate records, joined by “and”; a condition that tells them apart may be missing. Equal values may be shown once.

How the values were obtained:
Type in all cases: cell-based, Pseudomonas aeruginosa PAO1
[1] = system: P. aeruginosa planktonic phase; experiment: Minimum inhibitory concentration (MIC80) in planktonic phase, broth microdilution, optical density 595 nm; conditions: 24 h, 80% growth inhibition
Experimental: Pseudomonas aeruginosa (P. aeruginosa) PAO1 was used throughout the study. Blood agar and Brain heart infusion (BHI) solution were used for culturing P. aeruginosa. Prior to each experiment, P. aeruginosa was cultured on blood agar for 18 h at 37° C. A loopful of the overnight bacterial growth was inoculated into BHI medium, and incubated for 18 h in an orbital shaker (80 rpm) at 37° C. The resultant growth was harvested, washed twice in Phosphate Buffered Saline (PBS, pH 7.4) and resuspended. The concentration of P. aeruginosa was adjusted to 1×10^7 cells/mL by spectrophotometry and confirmed by hemocytometric counting. Briefly, bacterial cell suspension (5×10^5 cells/mL) were treated with the antibiotic in a concentration gradient and incubated in a 96 well microtiter plate for 24 h at 35° C. At the end of the incubation, the optical density of the bacterial growth was measured by a spectrophotometer at 595 nm. The lowest concentration of the antibiotic at which 80% of bacterial growth inhibition was achieved was considered as the MIC80 of this antibiotic against P. aeruginosa. The assay was performed quadruplicates at three times.

[2] = system: P. aeruginosa biofilm formation phase; experiment: MIC80 in biofilm formation phase, XTT reduction assay; conditions: Pseudomonas aeruginosa, 24 h, read-out: critical concentration necessary for 80% suppression of P. aeruginosa viability (MIC80)
Experimental: (§1) Pseudomonas aeruginosa (P. aeruginosa) PAO1 was used throughout the study. Blood agar and Brain heart infusion (BHI) solution were used for culturing P. aeruginosa.
(§2) Prior to each experiment, P. aeruginosa was cultured on blood agar for 18 h at 37° C. A loopful of the overnight bacterial growth was inoculated into BHI medium, and incubated for 18 h in an orbital shaker (80 rpm) at 37° C. The resultant growth was harvested, washed twice in Phosphate Buffered Saline (PBS, pH 7.4) and resuspended. The concentration of P. aeruginosa was adjusted to 1×10^7 cells/mL by spectrophotometry and confirmed by hemocytometric counting.
(§3) P. aeruginosa biofilm was developed as described (Bandara et al., 2010) with minor modifications. Commercially available pre-sterilized, polystyrene, flat bottom 96-well microtiter plates (BD Biosciences, California, USA) were used. […]
Bacterial cell suspension was added in sterile 96 well plates and incubated for 90 min under similar conditions as described in the section of Biofilm Formation. […] After 24 h incubation under 37° C. and 80 rpm, reduction assay of 2,3-bis(2-methoxy-4-nitro-5-sulfo-phenyl)-2H-tetrazolium-5-carboxanilide (XTT) was performed to quantify the viability of biofilm and crystal violet assay was used to measure biofilm biomass.

[3] = system: P. aeruginosa pre-formed biofilm; experiment: MIC80 in pre-formed biofilm phase, XTT reduction assay; conditions: pre-formed biofilm (24 h), 24 h treatment
Experimental: as §1, §2, §3
P. aeruginosa pre-formed biofilm was developed after 24 h incubation of adherent cells in sterile 96 well plates, as described in the section of Biofilm Formation. […] At the end of incubation period, XTT reduction assay was performed to quantify the viability of biofilm and crystal violet assay was used to measure biofilm biomass.

[4] = system: P. aeruginosa biofilm formation phase; experiment: Crystal violet assay of biofilm biomass, biofilm formation phase
Experimental: Bacterial cell suspension was added in sterile 96 well plates and incubated for 90 min under similar conditions as described in the section of Biofilm Formation. After the initial adhesion phase, adherent cells were treated with different samples in a concentration gradient, including control (PBS), tobramycin, and Tob-PEG. After 24 h incubation under 37° C. and 80 rpm, reduction assay of 2,3-bis(2-methoxy-4-nitro-5-sulfo-phenyl)-2H-tetrazolium-5-carboxanilide (XTT) was performed to quantify the viability of biofilm and crystal violet assay was used to measure biofilm biomass. At the end of incubation of both test and control biofilm, crystal violet assay was performed to quantify biofilm biomass. Biofilm was carefully washed twice with PBS and stained with 1% crystal violet solution for 15 min at 25° C. without shaking. Wells were carefully washed three times with PBS to remove excess stain and air dried in room temperature. Thirty percent acetic acid was added to the wells containing stained biofilm and incubated for 20 min at 25° C. The solution was transferred to a new well plate and optical density was measured at 570 nm.

[5] = system: P. aeruginosa pre-formed biofilm; experiment: Elimination of pre-formed biofilm in time dependent test (XTT); conditions: each at its biofilm MIC80 (Tob-PEG 27.81, tobramycin 89.80 μmol/L), 1-36 h
Experimental: P. aeruginosa pre-formed biofilm was developed as described previously and was treated with different samples at respective biofilm MIC80 concentrations. The plates were then incubated for 24 h at 37° C. and 80 rpm. XTT reduction assay was performed to selected samples at predetermined time points (1 h, 2 h, 3 h, 4 h, 5 h, 6 h, 9 h, 12 h, 15 h, 18 h, 21 h, 24 h and 36 h after incubation) to assess the percentage of time dependent bacterial inhibition.

Compound: NC[C@H]1O[C@H](O[C@H]2[C@H](O)[C@@H](O[C@H]3O[C@H](CO)[C@@H](O)[C@H](N)[C@H]3O)[C@H](N)C[C@@H]2N)[C@H](N)C[C@@H]1O [tobramycin, Tobramycin]
- Minimum inhibitory concentration (MIC80) [1]: 1.4 µM (≈ 0.655 µg/mL)
- MIC80 ([1]; Pseudomonas aeruginosa): 1.4 µM (≈ 0.655 µg/mL)
- MIC80 [2]: 1.4 µM (≈ 0.655 µg/mL)
- critical concentration needed for 80% inhibition of viable P. aeruginosa pre-formed biofilm (MIC80) [3]: 89.80 µM and 89.8 µM
- increment of the biofilm biomass compared to control ([4]; 1.40 μmol/L, 24 h): 17%
- biomass change versus untreated control ([4]; signed change): +17%
- time dependent biofilm inhibition [5]: After 18 h, tobramycin was superior
